Data published in patent US20230129745A1, “COMPOUNDS, COMPOSITIONS, AND METHODS TO TREAT METABOLIC DISEASE” (Board of Supervisors of Louisiana State University and …, priority 2020, published 2023).

Columns and labels:
[1] = test system: 3T3-L1 adipocytes; details: published data; cited from earlier work
[2] = target: T1, PPARγ (Homo sapiens, UniProt P37231); details: Choi et al. 2011; cited from earlier work
T1 construct: NIH-3T3 cells stably transfected with full-length PPARγ (A); expressed in transfected cells
T1 sequence (P37231 1-505): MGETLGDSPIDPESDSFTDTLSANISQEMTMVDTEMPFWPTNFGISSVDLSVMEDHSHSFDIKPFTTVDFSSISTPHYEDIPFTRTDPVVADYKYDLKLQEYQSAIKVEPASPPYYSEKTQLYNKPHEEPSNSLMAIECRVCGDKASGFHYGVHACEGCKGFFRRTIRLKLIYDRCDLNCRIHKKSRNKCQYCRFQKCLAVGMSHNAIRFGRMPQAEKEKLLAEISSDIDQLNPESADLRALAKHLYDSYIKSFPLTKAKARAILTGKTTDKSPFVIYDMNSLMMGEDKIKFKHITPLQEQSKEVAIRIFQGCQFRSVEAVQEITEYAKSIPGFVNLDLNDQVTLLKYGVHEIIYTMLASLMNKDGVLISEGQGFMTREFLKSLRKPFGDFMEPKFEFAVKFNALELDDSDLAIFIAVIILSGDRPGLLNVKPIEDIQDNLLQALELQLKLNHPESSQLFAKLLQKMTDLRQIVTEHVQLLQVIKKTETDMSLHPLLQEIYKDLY

[3] = 14 days of treatment, db/db mice; cited from earlier work
[4] = LC-MS of serum from mice fed HFD containing 1% Artemisia scoparia extract; format: in vivo; details: archived serum, SCO feeding study in high fat-fed mice, after 4-hour fast
Description: Serum samples of control or SCO-treated mice were analyzed directly without enzyme hydrolysis after protein precipitation (top 2 panels) or after glucuronidase enzyme digestion followed by solvent partitioning (lower 2 panels). Chromatograms were created using selected ion monitoring of m/z 315.159-315.161 specific to capillartemisins. In addition to specific mass, the identity of capillartemisin A was confirmed using our in-house library of spectral data that was confirmed using NMR spectroscopy.
To conduct in vivo assessments of SP's bioavailability or pharmacokinetics, we sent six-year-old archived serum samples from our last SCO feeding study in high fat-fed mice for analysis. These samples were collected at the time of sacrifice after a 4-hour fast, in conditions that were not designed for detection of SCO compounds in the circulation. […] However, capillartemisin A was detected (FIG. 12).

[5] = test system: 3T3-L1 cells; experiment: Lipid accumulation (Oil Red O) in differentiating 3T3-L1 cells; format: cell-based, murine; details: for dose dependence of lipid accumulation activity / lipid accumulation (Oil Red O staining): 2.5, 10, and 25 μM; for lipid accumulation (Oil Red O staining): relative to DMSO; for adipogenesis (Oil Red O and AdipoQ, Fabp4, Pparγ expression): 2.5, 10, or 25 μM, half-strength MDI, FIG. 27
Description: Cells were then either fixed and stained with Oil Red O (4 days post-differentiation) (panel A), or harvested (3 days post differentiation) for RNA isolation and gene expression analysis of adiponectin (AdipoQ), fatty acid binding protein 4 (Fabp4), or Ppary (panels B-D). All treatments compared to their respective DMSO controls. The Effects of SCO and ROSI were analyzed by t-test, while the effects of individual test compounds were analyzed by one-way ANOVA. *[…], **P<0.01, ***P<0.001, ****P<0.0001 vs DMSO controls.
Cell Culture and Treatments. 3T3-L1 preadipocytes (murine) were cultured as previously described,^3 and induced to differentiate two days after reaching confluence. For experiments using mature adipocytes, cells were induced with a standard methylxanthine-dexamethasone-insulin (MDI) cocktail, which contains 0.5 mM isobutylmethylxanthine (IBMX), 1 μM dexamethasone (DEX), and 1.72 μM insulin in high-glucose Dulbecco's Modified Eagle Medium (DMEM) supplemented with 10% fetal bovine serum (FBS). IBMX, DEX, insulin, and DMEM were obtained from Sigma-Aldrich (St. Louis, Mo.), and FBS from Hyclone (GE Healthcare Life Sciences, Logan, Utah). For differentiation experiments, cells were induced with half-strength MDI cocktail […]. In both cases, cells were fed with high-glucose DMEM+10% FBS with 0.43 μM insulin three days following MDI induction. Test compounds were dissolved in dimethylsulfoxide (DMSO) as 1000× stocks. For differentiation experiments, cells were treated with the compounds (or DMSO vehicle as a control) at the time of induction and at the first feeding there after (3 days post-MDI). For lipolysis experiments on mature adipocytes, cells were fed with high-glucose DMEM+10% FBS 6 days after MDI and treated with test compounds or DMSO vehicle for three days. On the third day cells were also treated overnight with 0.75 nM tumor necrosis factor alpha (TNFα) (Life Technologies, Carlsbad, Calif.) or its vehicle [0.1% bovine serum albumin (BSA) in phosphate buffered saline (PBS)]. The following morning, the culture medium was replaced with lipolysis incubation medium (low-glucose DMEM+2% BSA) and 0.75 nM TNFα(or vehicle). After 4 hours, conditioned medium and cell lysates were collected.
Lipid Accumulation Assay. Five days after MDI induction, cell monolayers were fixed in 10% neutral buffered formalin (ThermoFisher, Waltham, Mass.) and stained with the neutral lipid stain, Oil Red O (ORO). Plates were scanned to generate images of staining. The ORO was then eluted in isopropyl alcohol, and absorbance of eluates was measured at 520 nm for quantitation.

[6] = test system: 3T3-L1 adipocytes; experiment: TNFα-induced lipolysis (glycerol release) in 3T3-L1 adipocytes; format: cell-based, murine; details: 2.5, 10, or 25 μM, 3-day pretreatment; 0.75 nM TNFα
Description: Fully differentiated 3T3-L1 adipocytes pretreated for three days with 50 μg/ml SCO or varying doses of test compounds (2.5, 10, or 25 μM), then overnight with 0.75 nM TFNα (or vehicle). After 4 hours, the conditioned medium was collected and assayed for glycerol. Data was expressed as fold-change vs TNFα-only treatment. Data from no-TNFα controls and each test compound were analyzed by one-way ANOVA. **P<0.01, ****P<0.0001 vs TNFα-only condition.
Cell Culture and Treatments. 3T3-L1 preadipocytes (murine) were cultured as previously described,^3 and induced to differentiate two days after reaching confluence. For experiments using mature adipocytes, cells were induced with a standard methylxanthine-dexamethasone-insulin (MDI) cocktail, which contains 0.5 mM isobutylmethylxanthine (IBMX), 1 μM dexamethasone (DEX), and 1.72 μM insulin in high-glucose Dulbecco's Modified Eagle Medium (DMEM) supplemented with 10% fetal bovine serum (FBS). IBMX, DEX, insulin, and DMEM were obtained from Sigma-Aldrich (St. Louis, Mo.), and FBS from Hyclone (GE Healthcare Life Sciences, Logan, Utah). […]
FABP4 secretion and lipolysis assays. […] Conditioned media samples were collected after four hours and analyzed for FAPB4 content by immunoblotting. Lipolysis was also assessed by measuring glycerol concentrations in the samples, using free glycerol reagent from Sigma-Aldrich.

[7] = target: T2, caspase 1 (Mus musculus, UniProt P29452); details: literature; cited from earlier work
T2 sequence (P29452 119-402): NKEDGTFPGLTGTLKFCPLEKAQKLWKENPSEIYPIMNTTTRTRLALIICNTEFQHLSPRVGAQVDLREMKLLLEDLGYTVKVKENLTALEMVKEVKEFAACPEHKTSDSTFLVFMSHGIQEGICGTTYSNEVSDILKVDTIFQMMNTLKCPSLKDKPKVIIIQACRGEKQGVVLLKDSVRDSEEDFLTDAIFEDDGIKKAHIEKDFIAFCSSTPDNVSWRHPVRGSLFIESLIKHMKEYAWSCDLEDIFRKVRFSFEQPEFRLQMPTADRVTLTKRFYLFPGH

detection in serum (LC-MS) [4] | Compound | adipogenesis / adipocyte differentiation [1] | dose dependence of lipid accumulation activity [5] | lipid accumulation (Oil Red O staining) [5] | adipogenesis (Oil Red O and AdipoQ, Fabp4, Pparγ expression) [5] | inhibition of TNFα-induced lipolysis (glycerol release) [6] | also measured
 | CC(C)=CCc1cc(/C=C/C(=O)O)cc(CC=C(C)C)c1O [Artepillin C] | enhance adipogenesis |  |  |  |  | PPARγ activation [2]: activate
 | CN(CCOc1ccc(CC2SC(=O)NC2=O)cc1)c1ccccn1 (stereo not drawn) [rosiglitazone] |  |  |  |  |  | hematocrit [3]: decreases hematocrit by as much as three percentage points
detected | CC(C)=CCc1cc(/C=C/C(=O)O)cc(C/C=C(\C)CO)c1O [Compound 2, capillartemisin A] |  | active in a dose-dependent manner | enhanced lipid accumulation | promote adipogenesis | not able to significantly mitigate | 
did not detect | CC(C)=CCc1cc(/C=C/C(=O)O)cc(C/C=C(/C)CO)c1O [Compound 3, capillartemisin B] |  | best activity over the tested dose range | enhanced lipid accumulation | promote adipogenesis | not able to significantly mitigate | 
 | O=C(/C=C/c1ccc(O)c(O)c1)O[C@@H]1CC(O)(C(=O)O)C[C@@H](OC(=O)/C=C/c2ccc(O)c(O)c2)C1O (stereo partly drawn) [DEQA, 3,5-dicaffeoyl-epi-quinic acid] | do not promote adipogenesis |  |  |  |  | caspase 1 activity [7]: reduce
